Patent publication US10640532B2, “Crystal of reduced glutathione” (University Public Corporation Osaka, priority 2015, dated 2020)
Like-named read-outs stand apart in the source and are kept apart here.

Conditions: storage 40° C., 75% relative humidity
Description: The amorphous solid of a reduced glutathione-sodium salt obtained in (1) of Example 1, and the final crystal of a reduced glutathione-sodium salt obtained in Example 1 were compared for hygroscopicity under the following conditions.
Storage conditions: 40° C., 75% relative humidity (adjusted with saturated brine)
Measurement conditions: About 0.3 g of a sample was weighed with a precision balance, and charged into a plastic container. After being stored under the foregoing storage conditions, the sample was weighed, and the percentage of weight change was calculated.
The measured sample weight at each time point is relative to the 100% initial weight at the start of testing. In table 5, the symbol “-” means no measurement.

Row | weight (%) relative to 100% initial weight (elapsed time 0 h) [%] | weight (%) relative to 100% initial weight (elapsed time 0.25 h) [%] | weight (%) relative to 100% initial weight (elapsed time 2 h) [%] | weight (%) relative to 100% initial weight (elapsed time 4 h) [%] | weight (%) relative to 100% initial weight (elapsed time 10 h) [%] | weight (%) relative to 100% initial weight (elapsed time 20 h) [%] | weight (%) relative to 100% initial weight (elapsed time 48 h) [%] | SMILES | hygroscopicity / preservation stability compared with the amorphous solid (up to 48 h)
1 | 100 | 100.7 | 104.1 | 106.2 | 110.2 | 117.3 | 125.8 | N[C@@H](CCC(=O)N[C@@H](CS)C(=O)NCC(=O)O)C(=O)[O-].[Na+] [Amorphous, reduced glutathione-sodium salt] | 
2 | 100 |  | 100.7 |  | 101.9 | 102 | 102.9 | N[C@@H](CCC(=O)N[C@@H](CS)C(=O)NCC(=O)O)C(=O)[O-].[Na+] [Crystal, reduced glutathione-sodium salt] | less likely to absorb moisture than the amorphous solid
